Laboratory results reported in US10624897B2, “Chlorobenzene substituted azaaryl compounds” (TAIPEI MEDICAL UNIVERSITY, priority 2015, dated 2020).

Key:
FGFR3(V555M) = target: T1, FGFR3(V555M) (Homo sapiens, UniProt P22607, V555M); experiment: Kinase binding assay (Kd), mutant FGFR3
T1 construct: made in house; host or cells: E. coli BL21-derived host (T7 phage) or HEK-293
Experimental: (§1) Kinase assays. For most assays, kinase-tagged T7 phage strains were prepared in an E. coli host derived from the BL21 strain. E. coli were grown to log-phase and infected with T7 phage and incubated with shaking at 32° C. until lysis. The lysates were centrifuged and filtered to remove cell debris. The remaining kinases were produced in HEK-293 cells and subsequently tagged with DNA for qPCR detection. […] The liganded beads were blocked with excess biotin and washed with blocking buffer (SeaBlock (Pierce), 1% BSA, 0.05% Tween 20, 1 mM DTT) to remove unbound ligand and to reduce non-specific binding. […] All reactions were performed in polystyrene 96-well plates in a final volume of 0.135 ml. […] The kinase concentration in the eluates was measured by qPCR.
(§2) An 11-point 3-fold serial dilution of each test compound was prepared in 100% DMSO at 100× final test concentration and subsequently diluted to 1× in the assay (final DMSO concentration=1%). Most Kds were determined using a compound top concentration=30,000 nM.
(§3) Binding constants (Kds) were calculated with a standard dose-response curve using the Hill equation: […]
(§4) The Hill Slope was set to −1. Curves were fitted using a non-linear least square fit with the Levenberg-Marquardt algorithm.
(§5) The compound and assay method are similar to those mentioned in Example 45.

FGFR3(G697C) = target: T2, FGFR3(G697C) (Homo sapiens, UniProt P22607, G697C); experiment: Kinase binding assay (Kd), mutant FGFR3
T2 construct: made in house; host or cells: E. coli BL21-derived host (T7 phage) or HEK-293
Experimental: as §1, §2, §3, §4, §5

FGFR3(K650E) = target: T3, FGFR3(K650E) (Homo sapiens, UniProt P22607, K650E); experiment: Kinase binding assay (Kd), mutant FGFR3
T3 construct: made in house; host or cells: E. coli BL21-derived host (T7 phage) or HEK-293
Experimental: as §1, §2, §3, §4, §5

AKT2 = target: T4, AKT2 (Homo sapiens, UniProt P31751); experiment: Kinase binding assay (Kd)
T4 construct: made in house; host or cells: E. coli BL21-derived host (T7 phage) or HEK-293
Experimental: as §1, §2, §3, §4

FAK = target: T5, FAK (Homo sapiens, UniProt Q05397); experiment: Kinase binding assay (Kd)
T5 construct: made in house; host or cells: E. coli BL21-derived host (T7 phage) for most kinases, HEK-293 for the rest
Experimental: as §1, §2, §3, §4

p38-alpha = target: T6, p38-alpha (Homo sapiens, UniProt Q16539); experiment: Kinase binding assay (Kd)
T6 construct: made in house; host or cells: E. coli BL21-derived host (T7 phage) for most kinases, HEK-293 for the rest
Experimental: as §1, §2, §3, §4

MEK1 = target: T7, MEK1 (Homo sapiens, UniProt Q02750); experiment: Kinase binding assay (Kd)
T7 construct: made in house; host or cells: E. coli BL21-derived host (T7 phage) for most kinases, HEK-293 for the rest
Experimental: as §1, §2, §3, §4

BRAF = target: T8, BRAF (Homo sapiens, UniProt P15056); experiment: Kinase binding assay (Kd)
T8 construct: made in house; host or cells: E. coli BL21-derived host (T7 phage) or HEK-293
Experimental: as §1, §2, §3, §4

BTK = target: T9, BTK (Homo sapiens, UniProt Q06187); experiment: Kinase binding assay (Kd)
T9 construct: made in house; host or cells: E. coli BL21-derived host (T7 phage) or HEK-293
Experimental: as §1, §2, §3, §4

MET = target: T10, MET (Homo sapiens, UniProt P08581); experiment: Kinase binding assay (Kd)
T10 construct: made in house; host or cells: E. coli BL21-derived host (T7 phage) for most kinases, HEK-293 for the rest
Experimental: as §1, §2, §3, §4

PDGFRA = target: T11, PDGFRA (Homo sapiens, UniProt P16234); experiment: Kinase binding assay (Kd)
T11 construct: made in house; host or cells: E. coli BL21-derived host (T7 phage) for most kinases, HEK-293 for the rest
Experimental: as §1, §2, §3, §4

PLK3 = target: T12, PLK3 (Homo sapiens, UniProt Q9H4B4); experiment: Kinase binding assay (Kd)
T12 construct: made in house; host or cells: E. coli BL21-derived host (T7 phage) or HEK-293
Experimental: as §1, §2, §3, §4

TGFBR1 = target: T13, TGFBR1 (Homo sapiens, UniProt P36897); experiment: Kinase binding assay (Kd)
T13 construct: made in house; host or cells: E. coli BL21-derived host (T7 phage) or HEK-293
Experimental: as §1, §2, §3, §4

CSF1R = target: T14, CSF1R (Homo sapiens, UniProt P07333); experiment: Kinase binding assay (Kd)
T14 construct: made in house; host or cells: E. coli BL21-derived host (T7 phage) or HEK-293
Experimental: as §1, §2, §3, §4

ERBB4 = target: T15, ERBB4 (Homo sapiens, UniProt Q15303); experiment: Kinase binding assay (Kd)
T15 construct: made in house; host or cells: E. coli BL21-derived host (T7 phage) for most kinases, HEK-293 for the rest
Experimental: as §1, §2, §3, §4

RAF1 = target: T16, RAF1 (Homo sapiens, UniProt P04049); experiment: Kinase binding assay (Kd)
T16 construct: made in house; host or cells: E. coli BL21-derived host (T7 phage) or HEK-293
Experimental: as §1, §2, §3, §4

PDGFRB = target: T17, PDGFRB (Homo sapiens, UniProt P09619); experiment: Kinase binding assay (Kd)
T17 construct: made in house; host or cells: E. coli BL21-derived host (T7 phage) or HEK-293
Experimental: as §1, §2, §3, §4

CSNK1D = target: T18, CSNK1D (Homo sapiens, UniProt P48730); experiment: Kinase binding assay (Kd)
T18 construct: made in house; host or cells: E. coli BL21-derived host (T7 phage) or HEK-293
Experimental: as §1, §2, §3, §4

SRPK3 = target: T19, SRPK3 (Homo sapiens, UniProt Q9UPE1); experiment: Kinase binding assay (Kd)
T19 construct: made in house; host or cells: E. coli BL21-derived host (T7 phage) or HEK-293
Experimental: as §1, §2, §3, §4

AURKB = target: T20, AURKB (Homo sapiens, UniProt Q96GD4); experiment: Kinase binding assay (Kd)
T20 construct: made in house; host or cells: E. coli BL21-derived host (T7 phage) or HEK-293
Experimental: as §1, §2, §3, §4

ADCK3 = target: T21, ADCK3 (Homo sapiens, UniProt Q8NI60); experiment: Kinase binding assay (Kd)
T21 construct: made in house; host or cells: E. coli BL21-derived host (T7 phage) or HEK-293
Experimental: as §1, §2, §3, §4

PIM1 = target: T22, PIM1 (Homo sapiens, UniProt P11309); experiment: Kinase binding assay (Kd)
T22 construct: made in house; host or cells: E. coli BL21-derived host (T7 phage) for most kinases, HEK-293 for the rest
Experimental: as §1, §2, §3, §4

YANK3 = target: T23, YANK3 (Homo sapiens, UniProt Q86UX6); experiment: Kinase binding assay (Kd)
T23 construct: made in house; host or cells: E. coli BL21-derived host (T7 phage) or HEK-293
Experimental: as §1, §2, §3, §4

MKNK2 = target: T24, MKNK2 (Homo sapiens, UniProt Q9HBH9); experiment: Kinase binding assay (Kd)
T24 construct: made in house; host or cells: E. coli BL21-derived host (T7 phage) for most kinases, HEK-293 for the rest
Experimental: as §1, §2, §3, §4

ROCK2 = target: T25, ROCK2 (Homo sapiens, UniProt O75116); experiment: Kinase binding assay (Kd)
T25 construct: made in house; host or cells: E. coli BL21-derived host (T7 phage) or HEK-293
Experimental: as §1, §2, §3, §4

p38-beta = target: T26, p38-beta (Homo sapiens, UniProt Q15759); experiment: Kinase binding assay (Kd)
T26 construct: made in house; host or cells: E. coli BL21-derived host (T7 phage) for most kinases, HEK-293 for the rest
Experimental: as §1, §2, §3, §4

LKB1 = target: T27, LKB1 (Homo sapiens, UniProt Q15831); experiment: Kinase binding assay (Kd)
T27 construct: made in house; host or cells: E. coli BL21-derived host (T7 phage) for most kinases, HEK-293 for the rest
Experimental: as §1, §2, §3, §4

IKK-alpha = target: T28, IKK-alpha (Homo sapiens, UniProt O15111); experiment: Kinase binding assay (Kd)
T28 construct: made in house; host or cells: E. coli BL21-derived host (T7 phage) for most kinases, HEK-293 for the rest
Experimental: as §1, §2, §3, §4

PIM3 = target: T29, PIM3 (Homo sapiens, UniProt Q86V86); experiment: Kinase binding assay (Kd)
T29 construct: made in house; host or cells: E. coli BL21-derived host (T7 phage) or HEK-293
Experimental: as §1, §2, §3, §4

MLK1 = target: T30, MLK1 (Homo sapiens, UniProt P80192); experiment: Kinase binding assay (Kd)
T30 construct: made in house; host or cells: E. coli BL21-derived host (T7 phage) for most kinases, HEK-293 for the rest
Experimental: as §1, §2, §3, §4

PIK3CG = target: T31, PIK3CG (Homo sapiens, UniProt P48736); experiment: Kinase binding assay (Kd)
T31 construct: made in house; host or cells: E. coli BL21-derived host (T7 phage) for most kinases, HEK-293 for the rest
Experimental: as §1, §2, §3, §4

FGFR signaling = experiment: Western blot of FGFR signaling in RT-112 cells; assay type: cell-based
From the text: BGJ-398, a known selective inhibitor of FGFR1 to FGFR3, was included as a reference compound. […] The major downstream pathways of FGFRs are MAPK, PI3K/AKT, and PLC-γ. RT-112 cells, which express FGFR3-TACC3, are reportedly unable to activate PLCγ due to a deletion of the last exon of FGFR3.

T28 sequence (O15111 whole entry): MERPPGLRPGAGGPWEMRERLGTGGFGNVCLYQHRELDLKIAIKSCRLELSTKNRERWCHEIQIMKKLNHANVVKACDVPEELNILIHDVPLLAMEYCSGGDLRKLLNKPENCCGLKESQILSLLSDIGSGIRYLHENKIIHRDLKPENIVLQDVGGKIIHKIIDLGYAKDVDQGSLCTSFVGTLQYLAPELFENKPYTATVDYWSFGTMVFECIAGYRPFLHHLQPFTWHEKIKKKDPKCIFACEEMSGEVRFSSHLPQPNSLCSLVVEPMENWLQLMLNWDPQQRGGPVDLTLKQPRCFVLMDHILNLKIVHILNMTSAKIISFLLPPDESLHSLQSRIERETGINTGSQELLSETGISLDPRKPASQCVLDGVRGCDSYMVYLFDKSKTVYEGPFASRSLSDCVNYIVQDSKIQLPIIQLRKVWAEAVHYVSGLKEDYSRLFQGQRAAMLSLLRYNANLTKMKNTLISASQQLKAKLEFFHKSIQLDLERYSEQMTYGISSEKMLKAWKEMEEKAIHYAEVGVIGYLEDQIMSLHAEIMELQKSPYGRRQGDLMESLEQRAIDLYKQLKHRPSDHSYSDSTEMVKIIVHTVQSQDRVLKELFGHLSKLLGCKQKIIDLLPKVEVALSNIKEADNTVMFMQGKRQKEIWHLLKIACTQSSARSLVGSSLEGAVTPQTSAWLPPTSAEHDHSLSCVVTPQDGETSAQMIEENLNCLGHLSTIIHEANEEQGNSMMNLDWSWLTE
T18 sequence (P48730 whole entry): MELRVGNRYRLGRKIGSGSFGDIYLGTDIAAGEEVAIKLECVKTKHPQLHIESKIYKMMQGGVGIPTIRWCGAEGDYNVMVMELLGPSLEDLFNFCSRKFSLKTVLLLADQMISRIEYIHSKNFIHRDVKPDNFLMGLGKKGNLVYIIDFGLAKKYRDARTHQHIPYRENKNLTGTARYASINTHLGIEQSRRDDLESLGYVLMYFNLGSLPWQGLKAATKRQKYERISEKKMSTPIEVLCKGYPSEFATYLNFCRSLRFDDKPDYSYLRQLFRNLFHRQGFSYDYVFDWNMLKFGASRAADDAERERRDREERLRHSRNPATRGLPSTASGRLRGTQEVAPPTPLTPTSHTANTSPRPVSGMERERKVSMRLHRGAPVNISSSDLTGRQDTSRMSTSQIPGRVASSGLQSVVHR
T24 sequence (Q9HBH9 whole entry): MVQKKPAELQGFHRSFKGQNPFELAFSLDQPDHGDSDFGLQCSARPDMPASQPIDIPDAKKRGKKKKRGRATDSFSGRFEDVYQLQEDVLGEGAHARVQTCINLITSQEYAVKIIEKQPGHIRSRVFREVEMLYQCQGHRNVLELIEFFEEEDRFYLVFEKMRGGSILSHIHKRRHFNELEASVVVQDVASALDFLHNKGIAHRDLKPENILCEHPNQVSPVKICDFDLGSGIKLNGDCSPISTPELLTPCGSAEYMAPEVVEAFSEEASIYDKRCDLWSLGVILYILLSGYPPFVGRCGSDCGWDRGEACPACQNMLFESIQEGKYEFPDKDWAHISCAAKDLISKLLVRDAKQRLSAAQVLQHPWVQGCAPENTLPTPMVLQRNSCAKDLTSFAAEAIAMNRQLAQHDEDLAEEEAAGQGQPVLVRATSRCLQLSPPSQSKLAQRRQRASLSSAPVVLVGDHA
T12 sequence (Q9H4B4 whole entry): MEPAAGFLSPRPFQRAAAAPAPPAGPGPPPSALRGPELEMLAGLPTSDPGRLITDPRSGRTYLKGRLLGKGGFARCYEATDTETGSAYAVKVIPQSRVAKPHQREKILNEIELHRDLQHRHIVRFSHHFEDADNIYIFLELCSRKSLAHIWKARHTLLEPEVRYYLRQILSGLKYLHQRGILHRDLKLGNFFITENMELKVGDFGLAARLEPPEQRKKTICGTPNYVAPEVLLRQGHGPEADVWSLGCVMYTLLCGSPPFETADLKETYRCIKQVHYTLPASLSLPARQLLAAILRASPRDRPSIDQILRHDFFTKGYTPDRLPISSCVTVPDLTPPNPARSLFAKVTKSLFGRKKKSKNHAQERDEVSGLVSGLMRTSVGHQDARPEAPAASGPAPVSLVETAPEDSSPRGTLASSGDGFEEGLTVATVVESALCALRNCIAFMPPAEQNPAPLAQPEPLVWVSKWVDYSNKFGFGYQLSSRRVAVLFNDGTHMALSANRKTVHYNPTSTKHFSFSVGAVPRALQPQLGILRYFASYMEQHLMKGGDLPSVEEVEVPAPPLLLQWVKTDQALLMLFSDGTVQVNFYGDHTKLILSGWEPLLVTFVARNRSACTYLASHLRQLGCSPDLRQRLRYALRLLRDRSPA
T17 sequence (P09619 33-1106): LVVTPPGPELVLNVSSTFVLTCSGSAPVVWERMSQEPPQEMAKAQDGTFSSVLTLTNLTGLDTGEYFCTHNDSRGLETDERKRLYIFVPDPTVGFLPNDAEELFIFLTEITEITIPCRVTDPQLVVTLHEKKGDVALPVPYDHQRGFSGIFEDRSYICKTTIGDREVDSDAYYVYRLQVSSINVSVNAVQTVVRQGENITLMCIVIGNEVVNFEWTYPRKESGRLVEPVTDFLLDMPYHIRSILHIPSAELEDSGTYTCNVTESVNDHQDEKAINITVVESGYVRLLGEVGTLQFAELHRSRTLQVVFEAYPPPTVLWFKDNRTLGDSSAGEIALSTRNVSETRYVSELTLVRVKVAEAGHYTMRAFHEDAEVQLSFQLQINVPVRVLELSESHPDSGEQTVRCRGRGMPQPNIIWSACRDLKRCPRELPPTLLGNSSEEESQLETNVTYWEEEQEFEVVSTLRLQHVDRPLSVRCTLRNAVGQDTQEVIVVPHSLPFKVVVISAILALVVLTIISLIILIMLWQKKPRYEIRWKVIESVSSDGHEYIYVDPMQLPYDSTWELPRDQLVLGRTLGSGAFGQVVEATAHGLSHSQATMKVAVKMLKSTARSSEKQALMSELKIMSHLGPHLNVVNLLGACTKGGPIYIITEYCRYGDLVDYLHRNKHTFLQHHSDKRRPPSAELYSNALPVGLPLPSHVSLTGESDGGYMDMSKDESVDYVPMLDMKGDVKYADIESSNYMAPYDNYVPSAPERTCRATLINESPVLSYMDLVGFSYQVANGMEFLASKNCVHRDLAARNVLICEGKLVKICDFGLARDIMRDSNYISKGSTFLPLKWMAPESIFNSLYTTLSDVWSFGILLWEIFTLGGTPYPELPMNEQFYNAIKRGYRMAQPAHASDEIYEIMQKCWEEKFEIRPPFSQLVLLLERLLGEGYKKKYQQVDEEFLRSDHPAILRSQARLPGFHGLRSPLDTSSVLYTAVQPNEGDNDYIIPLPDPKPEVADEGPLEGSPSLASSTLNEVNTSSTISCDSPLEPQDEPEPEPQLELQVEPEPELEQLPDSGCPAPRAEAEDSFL
T13 sequence (P36897 34-503): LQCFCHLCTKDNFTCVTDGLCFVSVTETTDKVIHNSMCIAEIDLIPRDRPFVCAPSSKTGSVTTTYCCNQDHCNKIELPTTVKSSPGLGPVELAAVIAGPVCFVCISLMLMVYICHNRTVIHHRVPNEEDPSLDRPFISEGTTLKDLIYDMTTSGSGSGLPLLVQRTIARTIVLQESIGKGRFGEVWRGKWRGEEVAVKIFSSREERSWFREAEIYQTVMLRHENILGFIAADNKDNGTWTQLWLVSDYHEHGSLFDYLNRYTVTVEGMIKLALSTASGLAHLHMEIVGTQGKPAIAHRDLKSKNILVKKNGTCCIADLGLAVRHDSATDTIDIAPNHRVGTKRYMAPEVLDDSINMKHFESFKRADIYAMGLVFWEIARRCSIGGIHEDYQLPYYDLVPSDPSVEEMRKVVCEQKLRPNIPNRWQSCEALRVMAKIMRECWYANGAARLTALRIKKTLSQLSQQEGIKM
T4 sequence (P31751 whole entry): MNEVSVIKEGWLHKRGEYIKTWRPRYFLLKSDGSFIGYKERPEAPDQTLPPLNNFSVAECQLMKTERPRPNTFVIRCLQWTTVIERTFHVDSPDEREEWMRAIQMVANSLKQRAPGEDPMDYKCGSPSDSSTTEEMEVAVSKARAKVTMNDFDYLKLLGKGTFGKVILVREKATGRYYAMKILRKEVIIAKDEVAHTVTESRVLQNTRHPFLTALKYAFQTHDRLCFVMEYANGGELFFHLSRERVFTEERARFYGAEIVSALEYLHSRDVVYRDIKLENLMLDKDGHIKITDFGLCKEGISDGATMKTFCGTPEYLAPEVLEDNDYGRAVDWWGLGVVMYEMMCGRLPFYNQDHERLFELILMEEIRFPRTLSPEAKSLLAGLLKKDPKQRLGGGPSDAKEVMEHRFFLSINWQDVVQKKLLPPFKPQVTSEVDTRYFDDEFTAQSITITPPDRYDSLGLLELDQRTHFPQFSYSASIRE
T21 sequence (Q8NI60 163-647): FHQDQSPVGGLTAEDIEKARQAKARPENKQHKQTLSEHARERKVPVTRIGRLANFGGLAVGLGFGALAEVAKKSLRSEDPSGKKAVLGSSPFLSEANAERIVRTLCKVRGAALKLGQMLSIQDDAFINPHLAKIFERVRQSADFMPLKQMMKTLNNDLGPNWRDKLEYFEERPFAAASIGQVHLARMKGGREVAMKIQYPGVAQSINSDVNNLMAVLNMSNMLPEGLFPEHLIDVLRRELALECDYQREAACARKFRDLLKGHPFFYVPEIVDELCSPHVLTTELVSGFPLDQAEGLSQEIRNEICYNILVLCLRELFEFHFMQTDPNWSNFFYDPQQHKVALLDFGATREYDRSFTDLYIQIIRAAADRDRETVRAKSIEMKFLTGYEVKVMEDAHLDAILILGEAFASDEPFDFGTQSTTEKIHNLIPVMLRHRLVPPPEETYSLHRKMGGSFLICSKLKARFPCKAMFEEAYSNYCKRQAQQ

CCN1CCN(c2ccc(Nc3ncnc(N(C)C(=O)Nc4c(Cl)c(OC)c(Cl)c(OC)c4Cl)n3)cc2)CC1 [MPT0L145, 1-(4-((4-(4-ethylpiperazin-1-yl)phenyl)amino)-1,3,5-triazin-2-yl)-1-methyl-3-(2,4,6-trichloro-3,5-dimethoxyphenyl)urea]
better potency than BGJ-398: inhibiting AKT phosphorylation (FGFR signaling; 1 to 4 h, FIG. 2B, 2C)
fully repressed: phosphorylation of ERK and AKT (FGFR signaling; 8 h, FIG. 2D)
exerted inhibitory activity: auto-phosphorylation of FGFR1 and FGFR3 and docking protein FRS2 (FGFR signaling; 1 h, FIG. 2A)
> 10 µM: Kd (FGFR3(V555M)) | Kd (AKT2) | Kd (FAK) | Kd (p38-alpha) | Kd (MEK1) | Kd (BRAF) | Kd (BTK) | Kd (MET) | Kd (PDGFRA) | Kd (PLK3) | Kd (TGFBR1) | Kd (ERBB4) | Kd (RAF1) | Kd (CSNK1D) | Kd (SRPK3) | Kd (AURKB) | Kd (ADCK3) | Kd (PIM1) | Kd (YANK3) | Kd (MKNK2) | Kd (ROCK2) | Kd (p38-beta) | Kd (LKB1) | Kd (IKK-alpha) | Kd (PIM3) | Kd (MLK1) | Kd (PIK3CG)
0.34 µM: Kd (CSF1R)
0.39 µM: Kd (FGFR3(G697C))
0.24 µM: Kd (FGFR3(K650E))
inhibited: phosphorylation of ERK (FGFR signaling; 1 h, concentration-dependent, FIG. 2B)
0.68 µM: Kd (PDGFRB)
